In PubChem BioAssay (NCI):
Where “and” joins values, the source holds several entries; their conditions need not be identical. Equal entries are not always repeated.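 Growth conditions: 96-well plates. Treatment: test compound, 48 hours, 5 concentrations. Analysis: linear interpolation between bracketing concentrations; unreached endpoints set to highest concentration. GI50: concentration for 50% inhibition of growth. Definition used: TGI = concentration required for complete inhibition of growth.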

How the values were obtained:
Test in all cases: inhibition of tumour cell growth, NCI panel, 48 h
ACHN renal = test system: ACHN renal
COLO 205 colon = test system: COLO 205 colon
DU-145 prostate = test system: DU-145 prostate
HOP-62 NSCLC = test system: HOP-62 NSCLC
HOP-92 NSCLC = test system: HOP-92 NSCLC
K-562 leukemia = test system: K-562 leukemia
RXF 393 renal = test system: RXF 393 renal
SF-539 CNS = test system: SF-539 CNS
SN12C renal = test system: SN12C renal
UACC-257 melanoma = test system: UACC-257 melanoma

Row | SMILES | GI50 (ACHN renal) | TGI (ACHN renal) | GI50 (COLO 205 colon) | TGI (COLO 205 colon) | GI50 (DU-145 prostate) | TGI (DU-145 prostate) | GI50 (HOP-62 NSCLC) | TGI (HOP-62 NSCLC) | GI50 (HOP-92 NSCLC) | TGI (HOP-92 NSCLC) | GI50 (K-562 leukemia) | TGI (K-562 leukemia) | GI50 (RXF 393 renal) | TGI (RXF 393 renal) | GI50 (SF-539 CNS) | TGI (SF-539 CNS) | GI50 (SN12C renal) | TGI (SN12C renal) | GI50 (UACC-257 melanoma) | TGI (UACC-257 melanoma)
1 | O=C(Nc1ccccc1OC(=O)c1ccccc1)c1ccccc1 | 43.6 µM | > 100 µM | 30.1 µM | 95.6 µM | 23.1 µM | 88.7 µM | 18.8 µM | > 100 µM | 23.1 µM | > 100 µM | 3.22 µM | > 100 µM | 50.9 µM | > 100 µM | 22.8 µM | > 100 µM | 28.1 µM | > 100 µM | 35.1 µM | > 100 µM
2 | NNc1nnc(-c2nnc(NN)o2)o1 |  | > 10 µM |  | > 10 µM |  | > 10 µM |  | > 10 µM |  | > 10 µM |  | > 10 µM |  | > 10 µM |  | > 10 µM |  | > 10 µM |  | > 10 µM
3 | Nc1nc(N)c(CCCCc2ccccc2)c(N)n1 |  | > 100 µM |  | > 100 µM |  | > 100 µM |  | > 100 µM |  | > 100 µM |  | > 100 µM |  | > 100 µM |  | > 100 µM |  | > 100 µM |  | > 100 µM
4 | Oc1cc(-n2cccn2)c(O)cc1-n1cccn1 |  | 37.4 µM |  | 37.9 µM |  | > 69.5 µM |  | > 76.1 µM |  | 39.8 µM |  | 39.3 µM |  | 37.8 µM |  | > 78.6 µM |  | 37.8 µM |  | 69.3 µM
5 | COc1cc2c(cc1F)C(c1ccccc1Cl)=Nc1c(n[nH]c1C)N2 | 1.45 µM | 10.2 µM | 0.416 µM | 3.79 µM | 3.46 µM | 21 µM | 1.31 µM | 19.1 µM | 1.34 µM | 13.5 µM | 0.493 µM | > 50.4 µM | 0.242 µM | 1.46 µM | 0.389 µM | 2.39 µM | 1.38 µM | 18.3 µM | 11.1 µM | 25.4 µM
6 | Fc1cccc(F)c1C(Nc1nncs1)Nc1nncs1 |  | > 100 µM |  | > 100 µM |  | > 100 µM |  | > 100 µM |  | > 100 µM |  | > 100 µM |  | > 100 µM |  | > 100 µM |  | > 100 µM |  | > 100 µM
7 | Oc1c(-c2cc(C(F)(F)F)[nH]n2)cc(Cl)c(OCc2ccc(Cl)cc2)c1-c1ccc(Cl)c(C(F)(F)F)c1 | 0.593 µM | 4.86 µM | 0.867 µM | 1.79 µM | 1.15 µM | 6.39 µM | 0.766 µM | 3.04 µM | 0.111 µM | 0.542 µM | 0.126 µM | 6.81 µM | 0.226 µM | 1.67 µM | 0.749 µM | 2.72 µM | 0.153 µM | 3.31 µM | 1.12 µM | 3.59 µM
8 | c1cc(N2CCN(c3ccc(C4=NCCCN4)cc3)CC2)ccc1C1=NCCCN1 | > 69.9 µM | > 100 µM | > 45.6 µM | > 100 µM | > 66.6 µM | > 100 µM | > 100 µM | > 100 µM | 73 µM | > 100 µM | > 65.5 µM | > 100 µM | > 35.8 µM | > 100 µM | > 74.5 µM | > 100 µM | > 100 µM | > 100 µM | 99 µM | > 100 µM
9 | Cc1ccncc1C(N)=O | > 100 µM | > 100 µM | > 100 µM | > 100 µM | > 100 µM | > 100 µM | > 100 µM | > 100 µM | > 100 µM | > 100 µM | > 100 µM | > 100 µM | > 100 µM | > 100 µM | > 100 µM | > 100 µM | > 100 µM | > 100 µM | > 100 µM | > 100 µM
10 | COc1cc2ncc3c(nc4sccn43)c2cc1OC | 10.2 µM | 26 µM | 38.2 µM | > 100 µM | 28 µM | > 100 µM | 18.7 µM | 51.4 µM | 15.8 µM | 39 µM | 31.6 µM | > 100 µM | > 100 µM | > 100 µM | 15.6 µM | 55.2 µM | 22.5 µM | 89.3 µM | 43.8 µM | > 100 µM
11 | O=C1c2c(Br)sc(Br)c2[C@@H](NC(=O)C(F)(F)F)C1Br (stereo not given in full) |  | 6.1 µM |  | 4.02 µM |  | 18.3 µM |  | 28.2 µM |  | 6.69 µM |  | 4.17 µM |  | 5.22 µM |  | 6.82 µM |  | 8.33 µM |  | 3.97 µM
12 | C1CSCCSCCCSCCSCCCSCCSCCCSCCSC1 |  | > 100 µM |  | > 100 µM |  | > 100 µM |  | > 100 µM |  | > 100 µM |  | > 100 µM |  | > 100 µM |  | > 100 µM |  | > 100 µM |  | > 100 µM
13 | COc1ccc(/C=C(/C)[N+](=O)[O-])cc1OC | 2.18 µM and 1.46 µM | 4.19 µM and 2.82 µM | 1.78 µM and 1.5 µM | 3.28 µM and 3.05 µM | 2.42 µM and 2.45 µM | 5.72 µM and 5.67 µM | 2.03 µM and 4.17 µM | 4.36 µM and 14.8 µM | 1.78 µM and 2.48 µM | 4.52 µM and 5.64 µM | 1.31 µM and 1.72 µM | > 100 µM | 1.7 µM and 1.42 µM | 3.16 µM and 2.78 µM | 2.08 µM and 2.22 µM | 3.94 µM and 4.7 µM | 2.35 µM and 2.18 µM | 6.07 µM and 5.77 µM | 1.56 µM and 0.6 µM | 2.98 µM and 1.92 µM
